Laboratory results published in US7470807B2, “Substituted arylalkanoic acid derivatives and use thereof” (Asahi Kasei Pharma Corporation, priority 2003, dated 2008).

How the values were obtained:
[1] = tested on: pulmonary fibrosis; details: clinical tests in the United States and Japan; cited from earlier work
[2] = tested on: bleomycin-induced pulmonary fibrosis; experiment: Bleomycin-induced rat pulmonary fibrosis model; type: in vivo; details: for fibrosing in groups administered with known type 4 PLA2 inhibitory compounds: bleomycin model, intraperitoneally or orally administered in a similar manner; for median of the fibrosing score: bleomycin intratracheal, oral 10, 30, 100 and 300 mg/kg once or twice a day for 21 days, positive control ++ to +++
Protocol: A suppressing effect on pulmonary fibrosing in a bleomycin-induced rat pulmonary fibrosis model, which is a pathological model of pulmonary fibrosis, was studied by the following method. Groups of BN female rats (7-week old) each consisting of seven rats were used for the test. The test animals were anesthetized with ketamine and xylazine, and the tracheae were exposed. Then, a 125 μg/0.1 ml solution of bleomycin (Nippon Kayaku) dissolved in physiological saline (Ohtsuka Pharmaceutical Factory) was injected into the tracheae by using a syringe. The negative control group was administered with 0.1 ml of saline into the tracheae.
Each test compound was suspended or dissolved in purified water containing 0.5% methylcellulose, and orally administered to the test animals at doses of 10, 30, 100 and 300 mg/5 ml/kg. The administration of the test compounds was started from the day of the bleomycin administration and performed once or twice a day for 21 days. The positive control group was administered with purified water containing 0.5% methylcellulose not added with any test compound in a similar manner. On the 21st day after the administration of bleomycin, the rats were sacrificed, and lungs were fixed with neutral buffered formalin to prepare histopathological samples. Staining of the histopathological samples was performed by the Azan method.
The histopathological samples of lungs were examined, and degree of fibrosing was represented with the following scores on the basis of formation of granulation tissues and proliferation of collagen fibers as indicators, i.e., −: no abnormality, ±: extremely mild change, +: mild change, ++: moderate change, and +++: significant change.

Row | Compound | fibrosing in groups administered with known type 4 PLA2 inhibitory compounds [2] | median of the fibrosing score [2] | further results
1 | Cc1ccc(=O)n(-c2ccccc2)c1 [pirfenidone] |  |  | effect against pulmonary fibrosis in clinical tests [1]: effective
2 | O=C(CCc1ccc(OCCS(=O)(=O)CCOC(c2ccc(Cl)cc2)c2ccc(Cl)cc2)cc1)C(F)(F)F [4-{4-[2-(2-[bis(4-chlorophenyl)methoxy]ethylsulfonyl)ethoxy]phenyl}-1,1,1-trifluoro-2-butanone] | mild |  | 
3 | 3-[4-cyclopentyloxy-3-(naphthalen-2-yl)phenyl]propionic acid [G-2] |  | ± to + | 
4 | O=C1NC(=O)C(=Cc2ccc(C(=O)NCC3CC(SC(c4ccccc4)(c4ccccc4)c4ccccc4)CN3C(=O)c3ccccc3C(=O)c3ccc(F)cc3F)cc2)S1 (stereo not drawn) [N-{1-[2-(2,4-difluorobenzoyl)benzoyl]-4-tritylsulfanylpyrrolidin-2-ylmethyl}-4-(2,4-dioxothiazolidin-5-ylidenemethyl)benzoic acid amide] | mild |  | 
5 | 3-[4-cyclopentyloxy-3-(1H-indole-5-yl)phenyl]propionic acid [G-4] |  | ± to + | 
6 | COc1cc(C(=O)O)ccc1Cc1cn(C(c2ccccc2)c2ccccc2)c2cc(Cl)ccc12 [4-(1-benzhydryl-6-chloro-1H-indol-3-ylmethyl)-3-methoxybenzoic acid, reference compound] | mild |  | 
